Source: patent US20070232527A1, “Medicaments and methods combining a HCV protease inhibitor and an AKR competitor” (priority 2005, published 2007)

Assays:
[1] = test system: cytosolic enzymes that convert Formula Ia to Formula Ia′; test: in vitro; settings: human
Procedure: (§3) All incubations contained 3 mM magnesium chloride and NADPH-generating system in 0.5 mL of 50 mM potassium phosphate buffer, pH 7.4. Prior to the addition of drug, incubation mixtures were preincubated for 2 min at 37° C. […] The incubation mixtures were vortexed and centrifuged (˜10,000 g) at 4° C. for 10 min; supernatants were analyzed by HPLC coupled with radiometric detector. Heat activated S9 cofactor or mitochondria were used as control. For LC-MS analysis, supernatants were concentrated in SpeedVac for 3 hrs. Incubation volumes were 0.5 mL and the final concentration of the organic solvents in the incubation system was less than 1% (v/v).
(§4) The mobile phase consisted of 10 mM ammonium acetate adjusted to pH 7.0 with 1% ammonium hydroxide (A) and 100% methanol (B).

[2] = test system: cytosolic enzymes that convert Formula Ia to Formula Ia′; test: Inhibition of metabolism of 14C-Formula Ia to Formula Ia′ in human liver cytosol; settings: human; for inhibition at 120 min: pH 7.4
Procedure: as §3, §4

[3] = In vivo inhibition study of Formula Ia with AKR competitor diflunisal, plasma PK; settings: cynomolgus monkeys plasma; as a function of diflunisal dose 0, 62.5, 125, 250 mg
Procedure: An in vivo study was conducted in cynomolgus monkeys where 200 mg Formula Ia and 0 (control), 62.5, 125, or 250 mg diflunisal (Dolobid) was administered as illustrated below. All six monkeys were first dosed with Formula Ia with blood samples collected over a 12 hr period for plasma pharmacokinetics (PK) of Formula Ia prior to administration of diflunisal (dose-escalation). Four doses of diflunisal were subsequently administered every 12 hr with Formula Ia administered at each 4th diflunisal dose after which blood samples were collected for PK assessment of Formula Ia. The following chart summarizes the timing of Formula Ia and diflunisal administration.

AKR1C3 = biological target: T1, AKR1C3 (Homo sapiens, UniProt P42330); test: Incubation with S9 fraction of recombinant human AKR1C3; assay type: in vitro ADME; set-up: made in house; settings: 20 μM 14C-radiolabeled compound; S9 2.5 mg protein/mL; NADPH
T1 sequence (P42330 1-323): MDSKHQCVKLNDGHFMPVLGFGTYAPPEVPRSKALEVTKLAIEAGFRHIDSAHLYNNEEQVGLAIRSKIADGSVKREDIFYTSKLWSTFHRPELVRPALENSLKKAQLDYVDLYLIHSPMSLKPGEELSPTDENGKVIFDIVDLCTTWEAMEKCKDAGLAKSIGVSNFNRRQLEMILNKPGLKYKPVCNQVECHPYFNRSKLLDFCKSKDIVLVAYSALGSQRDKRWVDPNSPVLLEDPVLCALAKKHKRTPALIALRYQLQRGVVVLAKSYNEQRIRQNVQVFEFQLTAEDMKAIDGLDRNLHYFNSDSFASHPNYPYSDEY
Procedure: (§1) Recombinant human AKRs (AKR1C2, AKR1C3 and AKR1C4) were grown, sonicated and centrifuged at ˜10,000 g to obtain S9 fractions. Incubations of ^14C-radiolabeled compound of Formula Ia, ^14C-radiolabeled compound of Formula Ib and ^14C-radiolabeled compound of Formula Ic (all at 20 μM) with S9-fractions from three recombinant human AKRs (2.5 mg protein/mL) were conducted as described above. [drawing 161]
(§2) The samples were analyzed by HPLC-coupled with radiometric detector and confirmed by LC-MS.

AKR1C2 = biological target: T2, AKR1C2 (Homo sapiens, UniProt P52895); test: Incubation with S9 fraction of recombinant human AKR1C2; assay type: in vitro ADME; set-up: made in house; settings: 20 μM 14C-radiolabeled compound; S9 2.5 mg protein/mL; NADPH
T2 sequence (P52895 1-323): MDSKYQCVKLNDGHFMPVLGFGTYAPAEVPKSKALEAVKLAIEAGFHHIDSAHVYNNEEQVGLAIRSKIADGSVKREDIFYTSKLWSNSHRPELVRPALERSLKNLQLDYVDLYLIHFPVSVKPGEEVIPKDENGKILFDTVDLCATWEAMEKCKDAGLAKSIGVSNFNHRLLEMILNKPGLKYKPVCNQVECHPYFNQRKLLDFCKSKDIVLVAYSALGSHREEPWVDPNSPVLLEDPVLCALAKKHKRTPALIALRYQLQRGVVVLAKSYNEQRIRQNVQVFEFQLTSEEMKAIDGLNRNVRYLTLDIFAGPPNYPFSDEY
Procedure: as §1, §2

[4] = test system: cytosolic enzymes that convert Formula Ia to Formula Ia′; test: Inhibition of metabolism of 14C-Formula Ia to Formula Ia′ in human liver S9; assay type: in vitro ADME; settings: human, pH 7.4
[5] = pH 7.4, % Inhibition on Metabolite Formation of Compound Formula Ia
[6] = pH 7.4, % of Inhibition on Metabolite Formation of Compound Formula Ia
[7] = pH 7.4, inhibited formation of the compound of Formula Ia′

Oc1ncnc2[nH]ncc12 [Allopurinol]
inhibited formation of the compound of Formula Ia′ (human liver cytosol): no inhibition
inhibition at 2 h, 100 µM [1, 5]: 2%

CC(C)=CCC/C(C)=C/COc1c2ccoc2cc2oc(=O)ccc12 [Bergamottin]
inhibition at 2 h, 10 µM [1, 6]: 10%

Cc1ccc(-c2cc(C(F)(F)F)nn2-c2ccc(S(N)(=O)=O)cc2)cc1 [Celecoxib]
inhibition at 120 min, 2 μM [1, 5]: 8.42%
inhibition at 120 min, 10 μM [1, 5]: 9.18%
inhibition at 120 min, 50 μM [1, 5]: 20.5%
inhibition at 2 h, 50 µM [1, 6]: 20.5%

O=C(O)Cc1ccccc1Nc1c(Cl)cccc1Cl [Diclofenac]
inhibition at 2 h, 7 µM [1, 6]: 57.3%

CCc1cccc2c3c([nH]c12)C(CC)(CC(=O)O)OCC3 (stereo not shown) [Etodolac]
inhibition at 2 h, 100 µM [1, 6]: 3.74%

CC(C(=O)O)c1cccc(Oc2ccccc2)c1 (stereo not shown) [Fenoprofen]
inhibition at 2 h, 80 µM [1, 6]: 14.2%

O=C(O)c1ccccc1Nc1cccc(C(F)(F)F)c1 [Flufenamic acid, N-(3-trifluoromethylphenyl)anthranilic acid]
inhibition at 2 h, 100 µM [1, 5]: 80.3%
inhibition at 120 min [1, 7]: 80.3%

CN1C(=O)CN=C(c2ccccc2F)c2cc([N+](=O)[O-])ccc21 [Flunitrazepam]
inhibition at 120 min [2]: 51%

CC(C(=O)O)c1ccc(-c2ccccc2)c(F)c1 (stereo not shown) [Flurbirofen]
inhibition at 2 h, 50 µM [1, 6]: 31.6%

CC(C)(C)NC(=O)N[C@H](C(=O)N1C[C@H]2[C@@H]([C@H]1C(=O)N[C@H](CC1CCC1)C(=O)C(N)=O)C2(C)C)C(C)(C)C [Formula Ib]
AUC ratio (Formula Ia′ to AUC for the compound) [3]: decline
metabolism by recombinant AKR1C3 (AKR1C3): preferentially metabolized

CC(C)(C)NC(=O)N[C@H](C(=O)N1C[C@H]2[C@@H]([C@H]1C(=O)N[C@@H](CC1CCC1)C(=O)C(N)=O)C2(C)C)C(C)(C)C [Formula Ic, (1R,2S,5S)—N-[(1S)-3-amino-1-(cyclobutylmethyl)-2,3-dioxopropyl]-3-[(2S)-2-[[[(1,1-dimethylethyl)amino]carbonyl]amino]-3,3-dimethyl-1-oxobutyl]-6,6-dimethyl-3-azabicyclo[3.1.0]hexane-2-carboxamide]
AUC ratio (Formula Ia′ to AUC for the compound) [3]: decline
metabolism by recombinant AKR1C2 (AKR1C2): preferentially metabolized

Cc1ccc(C)c(OCCCC(C)(C)C(=O)O)c1 [Gemfibrozil, 5-(2,5-dimethylphenoxy)-2,2-dimethylpentanoic acid]
inhibition at 120 min, 100 µM [1, 5]: 27.4%
inhibition at 120 min, 100 μM [1, 5]: 27.4%

CC(C)Cc1ccc(C(C)C(=O)O)cc1 (stereo not shown) [Ibuprofen]
inhibition at 120 min, 50 µM [1, 5]: 21.9%
inhibition at 120 min, 50 μM [1, 5]: 31.3%
inhibition at 120 min, 100 µM [1, 5]: 31.4%
inhibition at 120 min, 100 μM [1, 5]: 33.4%
inhibition at 120 min, 200 µM [1, 5]: 40.7%
inhibition at 120 min, 200 μM [1, 5]: 43.3%
inhibition at 120 min, 500 µM [1, 5]: 56.6%
inhibition at 120 min, 1000 µM [1, 5]: 70%
inhibition at 120 min, 1000 μM [1, 5]: 70%
inhibition at 2 h, 200 µM [1, 6]: 43.3%
inhibition at 120 min ([1]; pH 7.4, inhibited metabolism of 14C-radiolabeled compound of Formula Ia): 70%

COc1ccc2c(c1)c(CC(=O)O)c(C)n2C(=O)c1ccc(Cl)cc1 [Indomethacin]
inhibition at 120 min, 100 µM [1, 5]: 19%
inhibition at 120 min, 100 μM [1, 5]: 19%
inhibition at 2 h, 100 µM [1, 6]: 19%

O=C(c1ccccc1)c1ccc2n1CCC2C(=O)O (stereo not shown) [Ketorolac]
inhibition at 2 h, 4 µM [1, 6]: 0%

Cc1cccc(Nc2ccccc2C(=O)O)c1C [Mefenamic acid]
inhibition at 2 h, 1 µM [1, 6]: 14.6%
inhibition at 2 h, 10 µM [1, 6]: 51.1%

CC1=CC(=O)c2ccccc2C1=O [Menadione]
inhibition at 120 min, 100 µM [4]: 18%
inhibition at 2 h, 100 µM [1, 5]: 29.7%
inhibition at 120 min, 100 µM [1, 7]: 30%

Cc1ncc2n1-c1ccc(Cl)cc1C(c1ccccc1F)=NC2 [Midazolam]
inhibition at 120 min [2]: 37%

COc1ccc2cc(CCC(C)=O)ccc2c1 [Nabumetone]
inhibition at 2 h, 200 µM [1, 6]: 42.4%

O=C1C[C@@H](c2ccc(O)cc2)Oc2cc(O)cc(O)c21 [Naringenin]
inhibition at 2 h, 500 µM ([2]; pooled human liver cytosol, pH 7.4, probe 14C-radiolabeled compound of Formula Ia (20 μM), % of Inhibition on Metabolite Formation of Compound Formula Ia, Table 5, human liver cytosol, 2 hr incubation, 500 μM): 86.7%

O=C(O)CCc1nc(-c2ccccc2)c(-c2ccccc2)o1 [Oxaprozin]
inhibition at 2 h, 500 µM [1, 6]: 76.1%

C#CCN(C)Cc1ccccc1 [Pargyline]
inhibited formation of the compound of Formula Ia′ (human liver cytosol): no inhibition
inhibition at 2 h, 1 µM [1, 5]: 0%

O=C1OC(c2ccc(O)cc2)(c2ccc(O)cc2)c2ccccc21 [Phenolphthalein]
inhibition at 120 min, 100 μM [1, 5]: 86.1%
inhibition at 120 min [1, 7]: 86.1%

O=c1c(O)c(-c2ccc(O)c(O)c2)oc2cc(O)cc(O)c12 [Quercetin]
inhibition at 120 min, 100 µM [4]: 9.3%
inhibition at 2 h, 100 µM [1, 5]: 33.4%
inhibition at 120 min, 100 µM [1, 7]: 33.4%

NC(=O)c1ncn([C@@H]2O[C@H](CO)[C@@H](O)[C@H]2O)n1 [Ribavirin]
inhibition at 120 min, 10 μM [1, 5]: 1.76%
inhibition at 120 min, 30 μM [1, 5]: 0%

CC1=C(CC(=O)O)c2cc(F)ccc2/C1=C\c1ccc([S+](C)[O-])cc1 (stereo not shown) [Sulindac]
inhibition at 2 h, 30 µM ([2]; pooled human liver cytosol, pH 7.4, probe 14C-radiolabeled compound of Formula Ia (20 μM), % of Inhibition on Metabolite Formation of Compound Formula Ia, Table 5, human liver cytosol, 2 hr incubation, 30 μM): 19%

Cc1ccc(C(=O)c2ccc(CC(=O)O)n2C)cc1 [Tolmetin]
inhibition at 2 h, 125 µM [1, 6]: 2.14%
